Among the data in US4749687A, “Renin inhibitors containing statine or derivatives thereof” (Pfizer Inc., priority 1985, dated 1988) are IC50 values, retold here.

Structures can show the parent of a compound that is named as a salt. Where a SMILES comes first, the peptide text is derived from it.

The test deals with T1, renin (Homo sapiens, UniProt P00797).
T1 construct: Blood plasma was obtained from healthy laboratory personnel, pooled and stored frozen until required; from tissue; host or cells: pooled human blood plasma (supernatant after centrifugation)
T1 sequence (P00797 67-406): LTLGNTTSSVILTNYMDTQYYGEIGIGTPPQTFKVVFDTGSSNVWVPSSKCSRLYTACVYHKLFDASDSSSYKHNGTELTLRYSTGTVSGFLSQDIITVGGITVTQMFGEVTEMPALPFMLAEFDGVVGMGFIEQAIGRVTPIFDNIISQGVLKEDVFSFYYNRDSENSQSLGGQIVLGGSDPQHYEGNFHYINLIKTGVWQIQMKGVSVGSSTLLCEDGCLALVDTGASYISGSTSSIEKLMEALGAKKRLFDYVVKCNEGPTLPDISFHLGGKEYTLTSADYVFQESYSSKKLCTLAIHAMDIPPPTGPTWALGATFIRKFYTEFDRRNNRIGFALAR
As to the kind of experiment: Inhibition of the angiotensinogen-cleaving activity of renin in vitro (plasma, angiotensin I radioimmunoassay). Particulars: pooled blood plasma from healthy laboratory personnel, pH 7.4, incubated three hours at 37° C., angiotensin I by radioimmunoassay; read-out: IC50 (inhibitor concentration required to produce a fifty percent inhibition of the angiotensinogen-cleaving activity of renin). The class given is biochemical. The method, then:
Blood plasma was obtained from healthy laboratory personnel, pooled and stored frozen until required. Before use, a quantity of this plasma was defrosted and centrifuged, and the supernatant mixed with protease inhibitors and buffered to pH 7.4. Renin inhibitors were added at different levels to different aliquots of the plasma supernatant, and the resulting mixtures (310 lambda) incubated for three hours at 37° C. along with renin inhibitor-free control mixtures. After incubation, the mixtures were quenched in ice water and each assayed for angiotensin I using angiotensin I antibody. The production of angiotensin I in the presence of a renin inhibitor was compared to that produced in the absence of the inhibitor, and a percentage inhibition was calculated. Using data obtained from duplicate incubations at each of several different inhibitor concentrations, the inhibitor concentration in the incubation mixture required to produce a fifty percent inhibition of the angiotensinogen-cleaving activity of renin, i.e. the IC50 of the inhibitor, was calculated for various different inhibitors.
The angiotensin I in the quenched incubation mixtures was assayed by means of a radioimmunoassay, using components of a renin radioimmunoassay kit supplied by Becton Dickinson and Co. (Orangeburg, N.Y.). This radioimmunoassay was based upon the one developed by Haber et al., J. Clin. Endocrinol., 29, pp. 1349-1355 (1969).

For the compound `CC(C)(C)OC(=O)N[C@@H](Cc1ccccc1)C(=O)N[C@@H](Cc1c[nH]cn1)C(=O)N[C@@H](CC1CCCCC1)[C@@H](O)CC(=O)N[C@@H](CCCCN)C(=O)N[C@@H](Cc1ccccc1)C(=O)O` [Example 9, [N-(t-butyloxycarbonyl)-Phe]-His-Cyclostatine-Lys-Phe] (HELM PEPTIDE1{[CC(C)(C)OC(=O)[*:2]].F.H.[O=C(C[C@H](O)[C@H](CC1CCCCC1)N[*:1])[*:2]].K.F}$$$$V2.0), the IC50 is less than 4 µM.

With `CC(C)(C)OC(=O)N1CCC[C@H]1C(=O)N[C@@H](Cc1ccccc1)C(=O)N[C@@H](Cc1c[nH]cn1)C(=O)N[C@@H](CC1CCCCC1)[C@@H](O)CC(=O)N[C@@H](CCCCN)C(=O)N[C@@H](Cc1ccccc1)C(=O)O` [Example 10, [N-(t-butyloxycarbonyl)-Pro]-Phe-His-CyclostatineLys-Phe] (HELM PEPTIDE1{[CC(C)(C)OC(=O)[*:2]].P.F.H.[O=C(C[C@H](O)[C@H](CC1CCCCC1)N[*:1])[*:2]].K.F}$$$$V2.0), the IC50 was less than 4 µM.

As for `CC[C@H](C)[C@@H](CN[C@@H](Cc1ccccc1)C(=O)O)NC(=O)C[C@H](O)[C@H](CC1CCCCC1)NC(=O)[C@H](Cc1c[nH]cn1)NC(=O)[C@H](Cc1ccccc1)NC(=O)OC(C)(C)C` [Example 11, [N-(t-butyloxycarbonyl)-Phe]-His-Cyclostatine-[Amino(2-secbutyl-ethylene)]-Phe Acetic Acid Salt], the IC50 was less than 4 µM.

“[N-(t-butyloxycarbonyl)-Phe]-His-Aminostatine-Ile-Phe Diacetate [Example 5]”: the IC50 is less than 4 µM.
